Experimental data from article doi:10.1101/2024.09.09.611999v1 (biorxiv, 2024).
Residue numbers refer to the chain shown, from its start. pIC50, pKd: −log10 of the molar value. Read-outs that look alike come from different tables or passages of the source.

Columns and labels:
overexpressed PRDX6 = target: T1, overexpressed PRDX6 (Homo sapiens, UniProt P30041); experiment: H2O2 clearance; format: cell-based
T1 sequence (P30041 2-224): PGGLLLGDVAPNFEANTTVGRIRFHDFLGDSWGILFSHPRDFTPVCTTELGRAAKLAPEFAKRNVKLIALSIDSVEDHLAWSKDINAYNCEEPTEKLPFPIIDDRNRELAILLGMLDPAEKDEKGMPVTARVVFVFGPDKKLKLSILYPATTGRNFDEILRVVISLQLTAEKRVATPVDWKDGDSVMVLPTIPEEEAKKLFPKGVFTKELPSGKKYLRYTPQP

PRDX6 with GFP tag [1] = target: T2, PRDX6 with GFP tag (Homo sapiens, UniProt P30041, C91A); experiment: cellular microscale thermophoresis, GFP fusion
T2 sequence (P30041 2-224 C91A): T1 sequence (P30041 2-224) with C90A

PRDX6 with GFP tag [2] = target: T3, PRDX6 with GFP tag (Homo sapiens, UniProt P30041, E210A); experiment: cellular microscale thermophoresis, GFP fusion
T3 sequence (P30041 2-224 E210A): T1 sequence (P30041 2-224) with E209A

pIC50 (overexpressed PRDX6; substrate H2O2)	pKd (PRDX6 with GFP tag [1])	pIC50 (overexpressed PRDX6)	pKd (PRDX6 with GFP tag [2])	Compound
4.81				CC(=O)N[C@@H](CS)C(=O)O [NAC, reference compound]
	4.96	4.31	4.84	O=c1cc(-c2ccc(O)cc2)oc2cc(O)cc(O)c12 [apigenin, 4’,5,7-trihydroxyflavone]
